# In US10028952B2, “Methods of treating diabetes or obesity using bile acids, bile salts, and mimics thereof” (SATIOGEN PHARMACEUTICALS, INC., priority 2008, dated 2018):
# Where two headings read alike, the source gives them in different places.
# Legend:
# [1] = molecular target: T1, TGR5 (Homo sapiens, UniProt Q8TDU6); conditions: TGR5-transfected CHO cells; more potent than the named bile acid; cited from earlier work
# T1 construct: expressed in transfected cells; host or cells: CHO cells
# T1 sequence (Q8TDU6 1-330): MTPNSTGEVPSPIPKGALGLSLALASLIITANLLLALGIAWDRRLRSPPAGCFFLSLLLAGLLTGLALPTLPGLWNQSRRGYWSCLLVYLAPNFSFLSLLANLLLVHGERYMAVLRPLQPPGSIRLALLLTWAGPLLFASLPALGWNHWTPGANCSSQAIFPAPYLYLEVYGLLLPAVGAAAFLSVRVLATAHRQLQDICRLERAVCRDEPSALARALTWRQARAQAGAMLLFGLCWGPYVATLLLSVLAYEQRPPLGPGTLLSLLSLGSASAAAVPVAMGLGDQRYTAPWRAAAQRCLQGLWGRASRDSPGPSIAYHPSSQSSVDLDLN
# [2] = tested on: overnight-fasted Sprague Dawley rats; conditions: 500 mM sodium taurocholate, 3 mL rectal gel, 1% methyl cellulose, over 6 hours
# Procedure: Using a stainless steel dissolving vessel fitted with a propeller stirrer 1 gram of methyl cellulose is dissolved in 100 mL of purified water and stirred for 15 minutes. 5 syringes connected to gavage tubes are then each filled with 3 mL of the composition.
# The sodium taurocholate rectal gel described above was rectally administered to 6 conscious overnight-fasted subjects (e.g., Sprague Dawley rats) and the control rectal gel without the sodium taurocholate was rectally administered to 5 conscious overnight-fasted subjects (e.g., Sprague Dawley rats). Each rat was then exposed to pre-weighed food and the cumulative consumption of the food was determined over a 6 hour period by weighing the food after 30 minutes, 60 minutes, 120 minutes, 240 minutes and 360 minutes.
# [3] = tested on: obese human diabetics; conditions: rectal, 0.66-20.0 mmoles in 20 ml 1% carboxymethyl cellulose gel, after 100 mg sitagliptin
# Procedure: Studies were undertaken after an overnight fast following administration (8-10 hours prior to bile salt) of 100 mg sitagliptin, a DPP-4 inhibitor that protects GLP-1 from inactivation by proteolysis. […] The taurocholic acid was administered into the rectum by syringe in a total volume of 20 ml of 1% carboxymethyl cellulose gel. Each dose was administered on a different day with at least three days between doses.
# [4] = tested on: overnight-fasted Sprague Dawley rats
# Procedure: Using a stainless steel dissolving vessel fitted with a propeller stirrer 1 gram of methyl cellulose is dissolved in 100 mL of purified water and stirred for 15 minutes. 12 syringes connected to gavage tubes are then each filled with 3 mL of the composition.
# A 4×4 Latin Square design is used to monitor the effect of the different concentration of taurocholate on the food uptake of overnight-fasted Sprague Dawley rats. Each concentration is tested in triplicate with four rats used per replicate.
# The ED50 for inhibition of food intake is obtained by plotting the normalizing the dose response for the anorectic effect of taurocholate to the control data as a log of taurocholate dose vs the percentage of control cumulative intake (FIG. 7).
# [5] = 50, 150, 500 mM rectal gels, 3 mL
SMILES,rank of potency (TGR5 agonist potency) [1],cumulative food intake compared to rats instilled with gel alone [2],circulating GLP-1 levels [3],circulating PYY levels [3],"cumulative food intake, relation to quantity administered [4, 5]","time for which differences in food uptake are maintained [4, 5]","ED50 for inhibition of food intake ([4]; 24 hour intake, rectal gel)","ED50 for inhibition of food intake ([4]; at 1 hour, 3 mL doses, rectal gel)","ED50 for inhibition of food intake ([4]; at 1 hour, rectal gel)",dose dependency for inhibition of intake between 8 and 24 hours ([4]; rectal gel)
"C[C@H](CCC(=O)O)[C@H]1CC[C@H]2[C@@H]3[C@H](O)C[C@@H]4C[C@H](O)CC[C@]4(C)[C@H]3C[C@H](O)[C@]12C [CA, cholic acid]",> hyodeoxycholic acid (HDCA,,,,,,,,,
"C[C@H](CCC(=O)NCCS(=O)(=O)O)[C@H]1CC[C@H]2[C@@H]3[C@H](O)C[C@@H]4C[C@H](O)CC[C@]4(C)[C@H]3C[C@H](O)[C@]12C [taurocholate, taurocholic acid]",,reduced,increase,increase,dose dependently related,at least 24 hours,7.2 mmol/rat,528 mM,1.6 mmol/rat,not different
